Reference: ChEMBL document CHEMBL1201862, “PubChem BioAssay data set” (2004)
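Cells were grown in 96-well plates and exposed to each compound for 48 hours at five concentrations; endpoints were interpolated linearly between bracketing concentrations, or set to the highest concentration if not reached. At the GI50, growth is halved.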 The source made the active and inactive calls. Rule as the data show it: active = GI50 up to about 1.1 µM and inactive = higher.

Experiments:
Test in all cases: NCI anticancer screen, dose series, 48 h
[1] = system: SW-620
[2] = system: MDA-N
[3] = system: NCI-H226
[4] = system: HOP-62
[5] = system: M14
[6] = system: NCI-H23
[7] = system: NCI/ADR-RES
[8] = system: NCI-H460
[9] = system: A498
[10] = system: SN12C
[11] = system: EKVX
[12] = system: SK-MEL-2
[13] = system: PC-3
[14] = system: OVCAR-3
[15] = system: Hs-578T
[16] = system: OVCAR-8
[17] = system: T47D
[18] = system: HCC 2998
[19] = system: DU-145
[20] = system: SR

Measured: GI50

C(=N/Nc1ccccn1)/c1cccnc1
inactive: [1] > 100 µM | [2] > 100 µM | [3] > 100 µM | [4] > 100 µM | [5] 62.7 µM | [6] 75 µM | [7] > 100 µM | [8] > 100 µM | [9] > 100 µM | [10] > 100 µM | [11] 49.4 µM | [12] > 100 µM | [13] > 100 µM | [14] > 100 µM | [15] > 100 µM | [16] > 100 µM | [17] > 100 µM | [18] > 100 µM | [19] > 100 µM

Cc1nc(O)nc2nc3cc(Cl)cc(Cl)c3c(NC(C)(CO)CO)c12
inactive: [1] > 100 µM | [2] > 100 µM | [3] > 100 µM | [4] 23.5 µM | [5] > 100 µM | [6] 81.8 µM | [7] > 100 µM | [8] > 100 µM | [9] 13.6 µM | [10] > 100 µM | [11] > 100 µM | [12] 29.1 µM | [13] > 100 µM | [14] > 100 µM | [15] 31.6 µM | [16] 75.2 µM | [17] > 100 µM | [18] > 100 µM | [19] 29.2 µM

O=C(Cn1c(-c2ccccc2)cc2ccccc21)N1CCCC1
inactive: [1] > 100 µM | [2] > 100 µM | [20] > 100 µM | [3] > 100 µM | [4] > 100 µM | [5] > 100 µM | [7] > 100 µM | [8] > 100 µM | [10] > 100 µM | [11] > 100 µM | [12] > 100 µM | [13] > 100 µM | [14] > 100 µM | [15] > 100 µM | [16] > 100 µM | [17] > 100 µM | [19] > 100 µM

CCOC(=O)C(C(=S)SC)c1nn2c(=O)cc(C)nc2s1 (stereo unspecified)
inactive: [1] 20.3 µM | [2] 15.8 µM | [20] 15.7 µM | [3] 17.9 µM | [4] 22.4 µM | [5] 15.6 µM | [6] 20.6 µM | [7] 24.3 µM | [8] 18.8 µM | [10] 16.2 µM | [11] 18.8 µM | [12] 20.8 µM | [13] 20.9 µM | [14] 20.2 µM | [15] 22.1 µM | [16] 19.3 µM | [17] 19 µM | [18] 25.5 µM | [19] 17.9 µM

COc1ccc(C(OCC2OC3(COC(c4ccccc4)(c4ccc(OC)cc4)c4ccc(OC)cc4)C(Oc4nc(=O)ccn43)C2O)(c2ccccc2)c2ccc(OC)cc2)cc1 (stereo unspecified)
inactive: [1] > 100 µM | [2] > 100 µM | [20] > 100 µM | [3] > 100 µM | [4] > 100 µM | [5] > 100 µM | [6] > 100 µM | [7] > 100 µM | [10] > 100 µM | [11] > 100 µM | [12] > 100 µM | [13] > 100 µM | [14] > 100 µM | [15] 10.8 µM | [16] > 100 µM | [17] > 100 µM | [19] > 100 µM

COC(=O)c1c(C)cc(OC)c(C/C=C(\C)CCCc2coc(C=C(C)C)c2)c1OC
inactive: [1] > 100 µM | [2] > 100 µM | [20] 7.6 µM | [4] > 100 µM | [5] > 100 µM | [6] > 100 µM | [7] > 100 µM | [8] > 100 µM | [10] > 100 µM | [11] > 100 µM | [12] > 100 µM | [13] > 100 µM | [14] > 100 µM | [15] 18.2 µM | [16] > 100 µM | [17] 43 µM | [18] > 100 µM | [19] > 100 µM

CCOC(=O)c1ccc(NC(=O)O/N=C(/Cl)CCl)cc1
inactive: [1] 50.2 µM | [2] 37.8 µM | [20] 27.2 µM | [4] > 100 µM | [6] 78.5 µM | [7] 24.5 µM | [8] 47.9 µM | [9] 15.2 µM | [10] 84.9 µM | [11] 23.5 µM | [12] 60.5 µM | [13] 33.6 µM | [14] 37.6 µM | [15] > 100 µM | [16] 41 µM | [17] 34.1 µM | [18] > 10 µM | [19] 65.3 µM

Cc1ccc(S(=O)(=O)[N-]C2C(=O)c3ccccc3C(=O)C2[n+]2cccc(C(N)=O)c2)cc1 (stereo unspecified)
inactive: [1] > 100 µM | [2] 34.8 µM | [20] > 100 µM | [3] > 100 µM | [4] > 100 µM | [5] > 100 µM | [6] > 100 µM | [7] > 100 µM | [8] > 100 µM | [10] 30.3 µM | [11] > 100 µM | [12] > 100 µM | [13] > 100 µM | [14] > 100 µM | [15] > 100 µM | [16] > 100 µM | [17] 24 µM | [18] 38.5 µM | [19] 40.6 µM

Cc1nc2c(=O)n3c4c(cccc4c2o1)CCC3
inactive: [1] > 100 µM | [2] > 100 µM | [3] > 100 µM | [4] > 100 µM | [5] > 100 µM | [6] > 100 µM | [7] > 100 µM | [8] 78 µM | [9] > 100 µM | [10] > 100 µM | [11] 76.6 µM | [12] > 100 µM | [13] 45.9 µM | [14] > 100 µM | [15] > 100 µM | [16] > 100 µM | [17] > 100 µM | [18] > 100 µM | [19] > 100 µM

COc1cc(OC)c(OC)cc1/C=C/c1nc2ccccc2s1
inactive: [1] > 100 µM | [2] 17.5 µM | [3] > 100 µM | [4] 29.1 µM | [5] 17.6 µM | [6] 86.5 µM | [7] > 100 µM | [8] > 100 µM | [9] 86.5 µM | [10] > 100 µM | [11] 69.7 µM | [12] > 100 µM | [13] 5.78 µM | [14] > 100 µM | [15] 67 µM | [16] > 100 µM | [17] 8.45 µM | [18] > 100 µM | [19] > 100 µM

C=C(C)[C@@H]1CC[C@]2(C(=O)O)CC[C@]3(C)[C@H](CCC4[C@@]5(C)CC[C@H](C(=O)/C=C/c6ccc(O)c(O)c6)C(C)(C)[C@@H]5CC[C@]43C)[C@@H]12 (stereo partly specified)
inactive: [2] 3.89 µM | [20] 3.4 µM | [4] 2.9 µM | [5] 3.39 µM | [6] 2.61 µM | [7] 5.46 µM | [8] 2.81 µM | [10] 5.02 µM | [11] 8.55 µM | [12] 12.6 µM | [13] 4.32 µM | [14] 10.7 µM | [15] 5.47 µM | [16] 4.46 µM | [17] 5.14 µM | [18] 1.88 µM | [19] 5.15 µM
